Measured values taken from US10370343B2, “[6,6] Fused bicyclic HDAC8 inhibitors” (FORMA Therapeutics, Inc., priority 2015, dated 2019).
Counter-ions that a name gives are not always drawn.

Columns and labels:
[1] = biological target: T1, Full length human recombinant HDAC8 protein (Homo sapiens, UniProt Q9BY41); test: In vitro histone deacetylase assay: enzymatic HDAC8 electrophoretic mobility shift assay; type: biochemical; settings: electrophoretic mobility shift assay; enzyme 1 nM; 2 μM fluorescently labeled peptide substrate RHKK(Ac)-NH2; 25° C.; 12 concentrations; read-out: HDAC8 IC50
T1 construct: Full length human recombinant HDAC8 protein was expressed in baculoviral system; made in house
T1 sequence (Q9BY41 1-377): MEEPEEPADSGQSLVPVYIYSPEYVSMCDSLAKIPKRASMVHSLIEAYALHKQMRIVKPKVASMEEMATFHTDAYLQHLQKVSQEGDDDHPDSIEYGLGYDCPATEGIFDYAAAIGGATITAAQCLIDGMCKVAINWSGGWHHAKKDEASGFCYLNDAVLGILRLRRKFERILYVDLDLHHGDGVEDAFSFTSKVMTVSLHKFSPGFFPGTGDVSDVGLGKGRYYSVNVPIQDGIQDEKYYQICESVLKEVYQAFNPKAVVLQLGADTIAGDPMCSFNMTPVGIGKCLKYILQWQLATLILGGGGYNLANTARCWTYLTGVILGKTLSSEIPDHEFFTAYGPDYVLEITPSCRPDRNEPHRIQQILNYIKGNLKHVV

[2] = biological target: T2, Recombinant N-terminal GST tag full-length human HDAC8 (Homo sapiens, UniProt Q9BY41); test: HDAC8 probe binding assay, time resolved fluorescence (TRF) format; settings: compounds grouped by IC50 range (Table 2)
T2 construct: Recombinant N-terminal GST tag full-length human HDAC8; purchased SignalChem H90-30G-1000; host or cells: baculovirus in Sf9 insect cells
T2 sequence (Q9BY41 1-377): T1 sequence (Q9BY41 1-377)
How it was run: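 Probe-binding TRF assay using full-length N-GST human HDAC8 expressed in baculovirus-infected Sf9 cells, incubated 16 h at room temperature and read at 340 nm excitation, 485/535 nm emission. Percent inhibition was normalised to no-enzyme and DMSO controls. IC50 was obtained by 4-parameter logistic fit.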

Compound	IC50 [1] [nM]	IC50 [2] [nM]
O=C(NO)c1ccc2c(c1)N(Cc1nc3cc(Cl)ccc3s1)C(=O)CO2 [Compound I-290, 4-((5-chlorobenzo[d]thiazol-2-yl)methyl)-N-hydroxy-3-oxo-3,4-dihydro-2H-benzo[b][1,4]oxazine-6-carboxamide]	< 25	≤ 25
CC1(C)Oc2ccc(C(=O)NO)cc2N(Cc2ccc(Cl)cc2F)C1=O [Compound I-161, 4-(4-chloro-2-fluorobenzyl)-N-hydroxy-2,2-dimethyl-3-oxo-3,4-dihydro-2H-benzo[b][1,4]oxazine-6-carboxamide]	< 25	≤ 25
CCCCN1C(=O)COc2ccc(C(=O)NO)cc21 [Compound I-45, 4-butyl-N-hydroxy-3-oxo-3,4-dihydro-2H-benzo[b][1,4]oxazine-6-carboxamide]	25 to 100	25 to 100
CC(C)CCN1C(=O)COc2ccc(C(=O)NO)cc21 [Compound I-59, N-hydroxy-4-isopentyl-3-oxo-3,4-dihydro-2H-benzo[b][1,4]oxazine-6-carboxamide]	25 to 100	25 to 100
COc1ccc(CN2C(=O)C(C)(C)Oc3ccc(C(=O)NO)cc32)c(F)c1 [Compound I-160, 4-(2-fluoro-4-methoxybenzyl)-N-hydroxy-2,2-dimethyl-3-oxo-3,4-dihydro-2H-benzo[b][1,4]oxazine-6-carboxamide]	< 25	≤ 25
O=C(NO)c1ccc2c(c1)N(Cc1ccc(F)c(C(F)(F)F)c1)C(=O)CO2 [Compound I-267, 4-(4-fluoro-3-(trifluoromethyl)benzyl)-N-hydroxy-3-oxo-3,4-dihydro-2H-benzo[b][1,4]oxazine-6-carboxamide]	25 to 100	25 to 100
O=C(NO)c1ccc2c(c1)N(Cc1ccc3nonc3c1)C(=O)CO2 [Compound I-62, 4-(benzo[c][1,2,5]oxadiazol-5-ylmethyl)-N-hydroxy-3-oxo-3,4-dihydro-2H-benzo[b][1,4]oxazine-6-carboxamide]	< 25	25 to 100
O=C(NO)c1ccc2c(c1)N(Cc1c(F)cccc1Cl)C(=O)CO2 [Compound I-273, 4-(2-chloro-6-fluorobenzyl)-N-hydroxy-3-oxo-3,4-dihydro-2H-benzo[b][1,4]oxazine-6-carboxamide]	25 to 100	25 to 100
O=C(NO)c1ccc2c(c1)N(CC[C@@H]1CCS(=O)(=O)C1)C(=O)CO2 (stereo in doubt) [Compound I-54, 4-(2-(1,1-dioxidotetrahydrothiophen-3-yl)ethyl)-N-hydroxy-3-oxo-3,4-dihydro-2H-benzo[b][1,4]oxazine-6-carboxamide]	100 to 1000	25 to 100
O=C(NO)c1ccc2c(c1)N(CCOc1ccc(C(F)(F)F)cc1)C(=O)CO2 [Compound I-55, N-hydroxy-3-oxo-4-(2-(4-(trifluoromethyl)phenoxy)ethyl)-3,4-dihydro-2H-benzo[b][1,4]oxazine-6-carboxamide]	25 to 100	–
COc1ccc(CN2C(=O)C3(CCCCC3)Oc3ccc(C(=O)NO)cc32)cc1 [Compound I-158, N-hydroxy-4-(4-methoxybenzyl)-3-oxo-3,4-dihydrospiro[benzo[b][1,4]oxazine-2,1′-cyclohexane]-6-carboxamide]	100 to 1000	–
O=C(NO)c1ccc2c(c1)N(CC1CCS(=O)(=O)CC1)C(=O)CO2 [Compound I-49, 4-((1,1-dioxidotetrahydro-2H-thiopyran-4-yl)methyl)-N-hydroxy-3-oxo-3,4-dihydro-2H-benzo[b][1,4]oxazine-6-carboxamide]	100 to 1000	–
CCCCCN1CCOc2ccc(C(=O)NO)cc21 [Compound I-78, N-hydroxy-4-pentyl-3,4-dihydro-2H-benzo[b][1,4]oxazine-6-carboxamide]	25 to 100	–
COc1ccc(CN2c3cc(C(=O)NO)ccc3OCC2C)cc1 (stereo not shown) [Compound I-155, N-hydroxy-4-(4-methoxybenzyl)-3-methyl-3,4-dihydro-2H-benzo[b][1,4]oxazine-6-carboxamide]	25 to 100	–
CS(=O)(=O)c1ccc(CN2CCOc3ccc(C(=O)NO)cc32)cc1 [Compound I-120, N-hydroxy-4-(4-(methylsulfonyl)benzyl)-3,4-dihydro-2H-benzo[b][1,4]oxazine-6-carboxamide]	25 to 100	–
CC(c1ccccc1)N1C(=O)COc2ccc(C(=O)NO)cc21 (stereo not shown) [Compound I-67, N-hydroxy-3-oxo-4-(1-phenylethyl)-3,4-dihydro-2H-benzo[b][1,4]oxazine-6-carboxamide]	25 to 100	–
O=C(NO)c1cccc2c1CCCN2c1nc2ccccc2[nH]1 [Compound I-14, 1-(1H-1,3-benzodiazol-2-yl)-N-hydroxy-1,2,3,4-tetrahydroquinoline-5-carboxamide]	> 1000	–

Compound	IC50 [1] [nM]	IC50 [2] [nM]
O=C(NO)c1ccc2c(c1)N(Cc1ccc(C(F)(F)F)cc1)CCS2(=O)=O [Compound I-79, N-hydroxy-4-(4-(trifluoromethyl)benzyl)-3,4-dihydro-2H-benzo[b][1,4]thiazine-6-carboxamide 1,1-dioxide]	< 25	–
Cc1ccc(CN2C(=O)COc3ccc(C(=O)NO)cc32)cc1C [Compound I-219, 4-(3,4-dimethylbenzyl)-N-hydroxy-3-oxo-3,4-dihydro-2H-benzo[b][1,4]oxazine-6-carboxamide]	< 25	–
COc1ccccc1CN1C(=O)COc2ccc(C(=O)NO)cc21 [Compound I-63, N-hydroxy-4-(2-methoxybenzyl)-3-oxo-3,4-dihydro-2H-benzo[b][1,4]oxazine-6-carboxamide]	100 to 1000	–
CC(C)=CCCN1C(=O)COc2ccc(C(=O)NO)cc21 [Compound I-44, N-hydroxy-4-(4-methylpent-3-en-1-yl)-3-oxo-3,4-dihydro-2H-benzo[b][1,4]oxazine-6-carboxamide]	25 to 100	–
COc1ccc(CN2CCS(=O)(=O)c3cc(C(=O)NO)ccc32)cc1 [Compound I-80, N-hydroxy-4-(4-methoxybenzyl)-3,4-dihydro-2H-benzo[b][1,4]thiazine-7-carboxamide-1,1-dioxide]	100 to 1000	–
O=C(NO)c1ccc2c(c1)N(C(=O)C1CCCCC1)CCO2 [Compound I-114, 4-(cyclohexanecarbonyl)-N-hydroxy-3,4-dihydro-2H-benzo[b][1,4]oxazine-6-carboxamide]	100 to 1000	–
O=C(NO)c1ccc2c(c1)N(C(=O)c1ccccc1)CCO2 [Compound I-140, 4-benzoyl-N-hydroxy-3,4-dihydro-2H-benzo[b][1,4]oxazine-6-carboxamide]	> 1000	–
O=C(NO)c1ccc2c(c1)N(c1nc3ccccc3[nH]1)CCC2 [Compound I-106, 1-(1H-benzo[d]imidazol-2-yl)-N-hydroxy-1,2,3,4-tetrahydroquinoline-7-carboxamide]	100 to 1000	–
O=C(NO)c1ccc2c(c1)N(CCN1CCCS1(=O)=O)C(=O)CO2 [Compound I-52, 4-(2-(1,1-dioxidoisothiazolidin-2-yl)ethyl)-N-hydroxy-3-oxo-3,4-dihydro-2H-benzo[b][1,4]oxazine-6-carboxamide]	100 to 1000	–
O=C(NO)c1ccc2c(c1)N(Cc1ccccc1)CC(C(=O)N1CC3(CC3)c3ccccc31)O2 (stereo not shown) [Compound I-4, 4-benzyl-N-hydroxy-2-(spiro[cyclopropane-l,3′-indoline]-1′ carbonyl)-3,4-dihydro-2H-benzo[b][1,4]oxazine-6-carboxamide hydrochloride]	25 to 100	–
CC1CN(Cc2ccccc2)c2cc(C(=O)NO)ccc2O1 (stereo not shown) [Compound I-83, 4-benzyl-N-hydroxy-2-methyl-3,4-dihydro-2H-benzo[b][1,4]oxazine-6-carboxamide]	100 to 1000	–
COc1ccc(S(=O)(=O)N2CCOc3ccc(C(=O)NO)cc32)cc1 [Compound I-87, N-hydroxy-4-((4-methoxyphenyl)sulfonyl)-3,4-dihydro-2H-benzo[b][1,4]oxazine-6-carboxamide]	100 to 1000	–
O=C(NO)c1ccc2c(c1)N(Cc1ccc(Cl)cc1)CCO2 [Compound I-118, 4-(4-chlorobenzyl)-N-hydroxy-3,4-dihydro-2H-benzo[b][1,4]oxazine-6-carboxamide]	25 to 100	–
O=C(NO)c1ccc2c(c1)OC(C(=O)N1CC3(CC3)c3ccccc31)CN2Cc1ccccc1 (stereo not shown) [Compound I-10, 4-benzyl-N-hydroxy-2-(spiro[cyclopropane-1,3′-indoline]-1′-carbonyl)-3,4-dihydro-2H-benzo[b][1,4]oxazine-7-carboxamide]	25 to 100	–
CC(c1ccccc1F)N1C(=O)COc2ccc(C(=O)NO)cc21 (stereo not shown) [Compound I-95, 4-(1-(2-fluorophenyl)ethyl)-N-hydroxy-3-oxo-3,4-dihydro-2H-benzo[b][1,4]oxazine-6-carboxamide]	25 to 100	–
O=C(NO)c1ccc2c(c1)N(Cc1ccc(S(=O)(=O)C(F)F)cc1)C(=O)CO2 [Compound I-88, 4-(4-((difluoromethyl)sulfonyl)benzyl)-N-hydroxy-3-oxo-3,4-dihydro-2H-benzo[b][1,4]oxazine-6-carboxamide]	< 25	–
Cc1ccccc1CN1C(=O)COc2ccc(C(=O)NO)cc21 [Compound I-148, N-hydroxy-4-(2-methylbenzyl)-3-oxo-3,4-dihydro-2H-benzo[b][1,4]oxazine-6-carboxamide]	100 to 1000	–
